Reference: PMC7582727, “Functional Impact of BeKm-1, a High-Affinity hERG Blocker, on Cardiomyocytes Derived from Human-Induced Pluripotent Stem Cells” (International Journal of Molecular Sciences, 2020)
Positions of bridges follow the written chain, without caps; N, C: chain ends. Residues, ends and D or L forms follow the SMILES beside them.

Key:
[1] = test system: hiPS-CMs (clone C2a, ventricular-like); type: cell-based, human
Protocol: Although the effect of BeKm-1 on APD90 was expected from a block of hERG channels, the other effects (i.e., membrane depolarization, reduction in AP frequency, and decrease of maximal upstroke velocity) are most likely a secondary consequence of the absence of IK1 in hiPS-CMs due to incomplete maturation level of these cells during the differentiation process (a recurrent problem in differentiating hiPS into cardiomyocytes). The 5 nM concentration of BeKm-1 was chosen to spare a fraction of the hERG channels in these cells. Therefore, we also tested a higher concentration (100 nM) in order to affect all hERG channels. […] This observation is coherent with the fact that a stronger IK1 current would be needed in hiPS-CMs to maintain a more negative membrane potential typical for CMs. […] In this technique, a current density of 2.8 pA/pF is injected in order to successfully reach an RMP value of −80 mV. […] Representative APs, paced at a constant cycling length of 700 ms with IK1, are shown before and after the application of 5 nM BeKm-1 (Figure 3A,B). […] Logically, these APs were excluded from further analysis of AP parameters. IK1 in silico injection efficiently allowed for setting a real resting membrane potential (RMP) at −80 mV in these hiPS-CMs, causing the cessation of spontaneous APs (not shown). As a result of IK1 taking the relay over IKr, there was no effect of 5 nM BeKm-1 on RMP (Figure 3C). […] The average prolongation of APD90 and variability is also detailed cell by cell (Figure S3).
(§1) hiPS-CMs: All experiments were performed on the human-induced pluripotent stem cell (hiPSC) clone C2a that has been previously characterized, including cardiac differentiation and electrophysiology data. Cells were expanded on stem cell-qualified matrigel-coated plates (0.05 mg/mL; BD Bioscience, Le Pont de Claix, France) and cultured in StemMACS iPS-BREW XF medium (Miltenyi Biotec, Paris, France). Cells were passaged every […] using Gentle Cell Dissociation Buffer (StemCell Technologies, Grenoble, France). Prior to differentiation, cells were cultured as a monolayer in StemMACS iPS-brew supplemented with 1 × Y-27632 Rho-associated, coiled-coil containing protein kinase (ROCK) inhibitor (StemCell Technologies, Grenoble, France). When hiPSCs reached proper confluence, they were differentiated into cardiomyocytes using previously described « Matrix sandwich » protocol. At day 20 ± 1 of differentiation, beating cardiomyocytes were manually dissected and isolated from non-beating cells. Briefly, cardiomyocytes were washed with phosphate-buffered saline (PBS) and treated with TrypLE Express (10x) (Thermo Fisher Scientific, Illkirch-Graffenstaden, France) for 5 min at 37 °C. The enzyme was inactivated by adding RPMI1640 medium containing 20% (vol/vol) KnockOut Serum Replacement (KSR) (Thermo Fisher Scientific, Illkirch-Graffenstaden, France). The supernatant was removed, and cells were suspended in RPMI1640 medium containing 20% (vol/vol) KSR and ROCK inhibitor. Then, the cells were plated on specific supports suitable for functional assessments.
Manual patch clamp: Single-cell dissociated hiPS-CMs were plated at low density on matrigel-coated 35 mm Petri dishes (Nunc from Thermo Fisher Scientific, Illkirch-Graffenstaden, France). Electrophysiological experiments were performed 12 to 14 days after dissociation. APs were recorded in the current-clamp mode, using the amphotericin-B-perforated patch-clamp technique. All experiments were conducted at 37 °C. APs were recorded either at basal state (spontaneous APs) or using the dynamic patch-clamp method to electronically mimic the expression of the inward rectifier potassium current, IK1 [23, 24]. The resting membrane potential (RMP) was set to −80 ± 5 mV by injecting 2 to 2.8 pA/pF in silico IK1 density. This level of current was set so that about 80% of the ventricular-like hiPS-CMs could reach these physiological RMP values. […]

hiPS-CMs monolayers = assay: Contraction (impedance) of hiPS-CM monolayers (CardioExcyte 96); type: cell-based, human
Protocol: The results described above on the excitability alterations of hiPS-CMs indicate that BeKm-1 should also impair excitation–contraction coupling (ECC) in these cells. In spontaneously beating cardiomyocytes, the toxin should impact the contractility in a coherent manner with spontaneous APs and CaT. We investigated the contractions using the CardioExcyte 96 system. […] Coherent with the proarrhythmic properties of 2 nM of BeKm-1, both the mean SD1, the standard deviation of instantaneous contraction-to-contraction interval variability, and SD2, the continuous long-term interval variability, increased by 2- and 1.7-fold, respectively (Figure S5I).
as §1
The beating properties and the electrical field potentials of hiPS-CMs were evaluated with a CardioExcyte96 system. After dissociation, hiPS-CMs were seeded on NSP-96 Sensor Plates (Nanion Technologies, Munich, Germany) at a density of 40,000 viable cells per well. Sensor plates were previously coated with 10 µg/mL fibronectin for 1 h at 37 °C. The cells were maintained at 37 °C, and the medium was replaced every 2 days for 1 week. On the day of beating assessment, the whole medium was replaced 4 h prior to experiments, and cells were incubated at 37 °C onto the CardioExcyte96 system. Meanwhile, cells were monitored to ensure the full stabilization of beating parameters until BeKm-1 was tested at various concentrations ([…]). Tfall and Trise were determined as the time between 10% and 90% of contraction or relaxation, respectively. Pulse width (PWx) was determined as the time corresponding to the width of the signal at 90% of relaxation. Electric field potentials (EFPs) were recorded using CardioExcyte96 system. For both contraction and EFPs, 10 sequences of 30 s of acquisition were analyzed before and after BeKm-1 addition. The CardioExcyte system is best to analyze the kinetic parameters of the contractile properties of hiPS-CMs but has intrinsic limitations to assess properly variations in contractile force.

[2] = 5 nM, dynamic clamp, paced every 700 ms
[3] = 2 nM vs vehicle, n = 8 monolayers

SMILES: CC[C@H](C)[C@H](NC(=O)[C@H](CC(=O)O)NC(=O)[C@@H](NC(=O)[C@@H]1CCCN1C(=O)[C@@H](N)CCCNC(=N)N)[C@@H](C)O)C(=O)N[C@@H](CCCCN)C(=O)N[C@H]1CSSC[C@@H]2NC(=O)[C@H](CCCNC(=N)N)NC(=O)CNC(=O)[C@H](CC(N)=O)NC(=O)[C@H]([C@@H](C)O)NC(=O)[C@H](CCCCN)NC(=O)CNC(=O)[C@H](Cc3ccccc3)NC(=O)[C@H](CCCNC(=N)N)NC(=O)[C@H](CO)NC(=O)[C@H](CCCCN)NC(=O)[C@@H]3CSSC[C@@H](C(=O)N[C@@H](Cc4ccccc4)C(=O)O)NC(=O)[C@H](CC(=O)O)NC(=O)[C@H](CSSC[C@H](NC(=O)[C@H](CCC(N)=O)NC(=O)[C@H](Cc4ccc(O)cc4)NC(=O)[C@H](CO)NC(=O)[C@H](CCC(=O)O)NC(=O)[C@H](CO)NC1=O)C(=O)N[C@@H](Cc1ccccc1)C(=O)N1CCC[C@H]1C(=O)N[C@@H](C(C)C)C(=O)N3)NC(=O)[C@H](Cc1ccccc1)NC(=O)CNC(=O)[C@H](CC(N)=O)NC(=O)[C@H](C(C)C)NC2=O [BeKm-1] (H-RPTDIKCSESYQCFPVCKSRFGKTNGRCVNGFCDCF-OH; disulfide 7-28, 13-33, 17-35 (inferred); N-terminus and C-terminus assumed)
- APD90 prolongation ([1]; 5 nM vs vehicle, average, dynamic clamp): 29%
- resting membrane potential (RMP) ([1]; 5 nM, RMP set to −80 mV by IK1 injection, paced every 700 ms): no effect
- APD90 ([1]; 5 nM, dynamic clamp, cycle length 700 ms, 37 °C, vehicle 121.9 ± 11.0 ms, n = 10, mean ± SEM): 156.7 ± 16.9 ms
- AP overshoot [1, 2]: no significant effect
- APD30 and APD50 [1, 2]: did not alter
- maximal upstroke velocity [1, 2]: no significant effect
- APD90 variability ([1]; 5 nM, dynamic clamp, Poincaré plot): greater APD90 variability
- contraction amplitude (hiPS-CMs monolayers; 2 nM): not significantly different from the control
- pulse width PW95 (hiPS-CMs monolayers; 2 nM): significant alteration
- pulse widths PW30, PW70 and PW90 (hiPS-CMs monolayers; 2 nM): none of the pulse widths (PW) PW30, PW70, and PW90 parameters were significantly altered
- interbeat interval increase (hiPS-CMs monolayers; 2 nM vs vehicle): 16.7%
- slowing of relaxation phase (hiPS-CMs monolayers; 2 nM vs vehicle): 19.8%
- slowing of rising phase of contraction (hiPS-CMs monolayers; 2 nM vs vehicle): 1.29 -fold
- SD1 increase (instantaneous contraction-to-contraction interval variability) (hiPS-CMs monolayers; [3]): 2 -fold
- SD2 increase (continuous long-term interval variability) (hiPS-CMs monolayers; [3]): 1.7 -fold
- interbeat interval (hiPS-CMs monolayers; 2 nM, 37 °C, vehicle 2.03 ± 0.1 s, n = 8, mean ± SEM): 2.37 ± 0.2 s
- duration of rising phase of contraction (Trise) (hiPS-CMs monolayers; 2 nM, 37 °C, vehicle 203.5 ± 11.3 ms, n = 8, mean ± SEM): 262.6 ± 16.9 ms
- duration of relaxation phase (Tfall) (hiPS-CMs monolayers; 2 nM, 37 °C, vehicle 719.2 ± 45.8 ms, n = 8, mean ± SEM): 862.1 ± 82.0 ms
- interbeat interval and its variability (hiPS-CMs monolayers; 2 nM, Poincaré plot): significantly increased
